In PubChem BioAssay AID256 (DTP/NCI, 2004):
Where “and” joins values, the source holds several entries; their conditions need not be identical. Identical values can stand only once. Inconclusive results and toxic doses are left out. Rule for the calls: active = survival T/C of 150% or more; inactive = T/C below 125% in these data.

System: CD2F1 mice, L1210 leukemia ip, survival T/C
Assay: NCI In Vivo Anticancer Drug Screen. Data for tumor model L1210 Leukemia (intraperitoneal) in CD2F1 (CDF1) mice
Settings: higher = longer survival
In short: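 Implant tumor; dose compound or vehicle; measure endpoint in both groups; report treated divided by control.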

[1] = endpoint: mean survival time, dose: 100.0 mg/kg/injection, schedule: Q04DX003 (ip), vehicle: saline with Tween-80
[2] = endpoint: mean survival time, dose: 200.0 mg/kg/injection, schedule: Q04DX003 (ip), vehicle: saline with Tween-80
[3] = endpoint: mean survival time, dose: 400.0 mg/kg/injection, schedule: Q04DX003 (ip), vehicle: saline with Tween-80
[4] = endpoint: mean survival time, dose: 100.0 mg/kg/injection, schedule: Q04DX002 (ip), vehicle: saline
[5] = endpoint: mean survival time, dose: 50.0 mg/kg/injection, schedule: Q01DX009 (ip), vehicle: saline with Tween-80
[6] = endpoint: mean survival time, dose: 100.0 mg/kg/injection, schedule: Q01DX009 (ip), vehicle: saline with Tween-80
[7] = endpoint: mean survival time, dose: 200.0 mg/kg/injection, schedule: Q01DX009 (ip), vehicle: saline with Tween-80
[8] = endpoint: mean survival time, dose: 100.0 mg/kg/injection, schedule: Q04DX002 (ip), vehicle: saline with Tween-80
[9] = endpoint: mean survival time, dose: 200.0 mg/kg/injection, schedule: Q04DX002 (ip), vehicle: saline with Tween-80
[10] = endpoint: mean survival time, dose: 400.0 mg/kg/injection, schedule: Q01DX009 (ip), vehicle: saline with Tween-80
[11] = endpoint: mean survival time, dose: 25.0 mg/kg/injection, schedule: Q04DX003 (ip), vehicle: saline with Tween-80
[12] = endpoint: mean survival time, dose: 50.0 mg/kg/injection, schedule: Q04DX003 (ip), vehicle: saline with Tween-80
[13] = endpoint: mean survival time, dose: 100.0 mg/kg/injection, schedule: Q01DX009 (ip), vehicle: saline
[14] = endpoint: mean survival time, dose: 200.0 mg/kg/injection, schedule: Q01DX009 (ip), vehicle: saline
[15] = endpoint: mean survival time, dose: 400.0 mg/kg/injection, schedule: Q01DX009 (ip), vehicle: saline
[16] = endpoint: mean survival time, dose: 400.0 mg/kg/injection, schedule: Q04DX002 (ip), vehicle: saline with Tween-80
[17] = endpoint: mean survival time, dose: 100.0 mg/kg/injection, schedule: Q01DX001 (ip), vehicle: saline
[18] = endpoint: mean survival time, dose: 200.0 mg/kg/injection, schedule: Q01DX001 (ip), vehicle: saline
[19] = endpoint: mean survival time, dose: 400.0 mg/kg/injection, schedule: Q01DX001 (ip), vehicle: saline

Measured: T/C

O=[N+]([O-])c1ccc(COc2ccc(Cl)cc2)cc1
inactive: [1] 92 % of control | [2] 103 % of control | [3] 94 % of control

Nc1ccccc1-c1ccccc1N
inactive: [4] 87 % of control

N#CCCOc1ccc(Cl)cc1
inactive: [5] 107 % of control | [6] 97 % of control | [7] 96 % of control

CC(=O)[CH-]C(C)=O.O=[N+]([O-])O.[NH-]C1CCCCC1[NH-].[Pt+4] (stereo not given)
inactive: endpoint: mean survival time, dose: 1.25 mg/kg/injection, schedule: Q04DX003 (ip), vehicle: water 95 % of control | endpoint: mean survival time, dose: 2.5 mg/kg/injection, schedule: Q04DX003 (ip), vehicle: water 98 % of control | endpoint: mean survival time, dose: 5.0 mg/kg/injection, schedule: Q04DX003 (ip), vehicle: water 98 % of control | endpoint: mean survival time, dose: 10.0 mg/kg/injection, schedule: Q04DX003 (ip), vehicle: water 110 % of control

COc1ccc(CCNC(=S)NN)cc1OC
inactive: endpoint: mean survival time, dose: 25.0 mg/kg/injection, schedule: Q04DX002 (ip), vehicle: saline with Tween-80 106 % of control | endpoint: mean survival time, dose: 50.0 mg/kg/injection, schedule: Q04DX002 (ip), vehicle: saline with Tween-80 95 % of control | [8] 114 % of control | [9] 103 % of control

OC1C2CCC(C2)C1C(O)(C(F)(F)Cl)C(F)(F)Cl (stereo not given)
inactive: [6] 97 % of control | [7] 91 % of control | [10] 87 % of control

C[n+]1ccc(/C=C\c2ccc(N(CCCl)CCCl)cc2)c2ccccc21
inactive: endpoint: mean survival time, dose: 6.25 mg/kg/injection, schedule: Q01DX009 (ip), vehicle: Klucel (hydroxypropylcellulose) (HPC) 98 % of control | endpoint: mean survival time, dose: 12.5 mg/kg/injection, schedule: Q01DX009 (ip), vehicle: Klucel (hydroxypropylcellulose) (HPC) 101 % of control | endpoint: mean survival time, dose: 25.0 mg/kg/injection, schedule: Q01DX009 (ip), vehicle: Klucel (hydroxypropylcellulose) (HPC) 112 % of control

CC12C(=O)OC(=O)C1(C)C1OC2C(Br)C1Br (stereo not given)
inactive: [11] 96 % of control | [12] 96 % of control | [1] 93 % of control and 101 % of control

CNCCC(=N)C(=N)CCNC
inactive: [4] 111 % of control | endpoint: mean survival time, dose: 200.0 mg/kg/injection, schedule: Q04DX002 (ip), vehicle: saline 106 % of control | endpoint: mean survival time, dose: 400.0 mg/kg/injection, schedule: Q04DX002 (ip), vehicle: saline 103 % of control

O=C(NC/C=C/Br)NC1CCCc2ccccc21 (stereo not given)
inactive: endpoint: mean survival time, dose: 100.0 mg/kg/injection, schedule: Q04DX003 (ip), vehicle: other 96 % of control | endpoint: mean survival time, dose: 200.0 mg/kg/injection, schedule: Q04DX003 (ip), vehicle: other 102 % of control | endpoint: mean survival time, dose: 400.0 mg/kg/injection, schedule: Q04DX003 (ip), vehicle: other 96 % of control

COc1ccc(C(=O)NN)cc1
inactive: endpoint: mean survival time, dose: 25.0 mg/kg/injection, schedule: Q01DX009 (ip), vehicle: saline with Tween-80 115 % of control | [5] 110 % of control | [6] 109 % of control | [1] 101 % of control

NC(=O)C(NCCn1cnc2c(N)ncnc21)C(N)=O
inactive: endpoint: mean survival time, dose: 1.25 mg/kg/injection, schedule: Q01DX005 (ip), vehicle: water 92 % of control | endpoint: mean survival time, dose: 2.5 mg/kg/injection, schedule: Q01DX005 (ip), vehicle: water 92 % of control | endpoint: mean survival time, dose: 5.0 mg/kg/injection, schedule: Q01DX005 (ip), vehicle: water 92 % of control | endpoint: mean survival time, dose: 10.0 mg/kg/injection, schedule: Q01DX005 (ip), vehicle: water 95 % of control | endpoint: mean survival time, dose: 20.0 mg/kg/injection, schedule: Q01DX005 (ip), vehicle: water 95 % of control

CC1CC(C)(C)NC(c2ccccc2)O1 (stereo not given)
inactive: [1] 94 % of control | [2] 94 % of control | [3] 102 % of control

Clc1ccc2[nH]c3nc4ccccc4nc3c2c1
inactive: [13] 106 % of control | [14] 108 % of control

c1ccc2c(c1)Sc1cnccc1N2CC1CO1 (stereo not given)
inactive: [13] 102 % of control | [14] 102 % of control | [15] 104 % of control

COc1ccc(C2=NC(C)Cc3cc(OC)c(OC)cc32)cc1OC (stereo not given)
inactive: endpoint: mean survival time, dose: 12.5 mg/kg/injection, schedule: Q01DX009 (ip), vehicle: water 96 % of control | endpoint: mean survival time, dose: 25.0 mg/kg/injection, schedule: Q01DX009 (ip), vehicle: water 94 % of control | endpoint: mean survival time, dose: 50.0 mg/kg/injection, schedule: Q01DX009 (ip), vehicle: water 94 % of control | endpoint: mean survival time, dose: 100.0 mg/kg/injection, schedule: Q01DX009 (ip), vehicle: water 91 % of control

C=CCSc1cccc2ccccc12
inactive: [6] 90 % of control | [1] 104 % of control | [7] 96 % of control | [2] 104 % of control | [3] 106 % of control

CCN(Cc1cccc(S(=O)(=O)O)c1)c1ccc(C(=C2C=CC(=[N+](CC)Cc3cccc(S(=O)(=O)O)c3)C=C2)c2ccc(S(=O)(=O)O)cc2)cc1
inactive: [6] 103 % of control | [1] 96 % of control | [7] 97 % of control | [2] 93 % of control | [10] 95 % of control | [3] 90 % of control

CC(C(=O)O)C1CCC2(C)CCC(=O)C(C)(Cl)C2(O)C1=O (stereo not given)
inactive: [8] 96 % of control | [9] 100 % of control | [16] 100 % of control

OCC1OC(n2cnc3c2nnn2ccnc32)C(O)C1O (stereo not given)
inactive: [13] 112 % of control | [14] 106 % of control | [15] 115 % of control

COc1cccc2c1CCC13OC(O)CC21CCCC3C#N (stereo not given)
inactive: [17] 95 % of control | [18] 95 % of control | [19] 90 % of control

CCOC(=O)C12CCCCCC1CC(=O)CC2 (stereo not given)
inactive: endpoint: mean survival time, dose: 100.0 mg/kg/injection, schedule: Q04DX003 (ip), vehicle: acetone 96 % of control | endpoint: mean survival time, dose: 200.0 mg/kg/injection, schedule: Q04DX003 (ip), vehicle: acetone 93 % of control | endpoint: mean survival time, dose: 400.0 mg/kg/injection, schedule: Q04DX003 (ip), vehicle: acetone 86 % of control

CCCCCCCCCCC(O)CCCCCCCCCC
inactive: [1] 100 % of control | [2] 90 % of control | [3] 90 % of control

CCC(=O)c1cc([N+](=O)[O-])ccc1N
inactive: [1] 95 % of control | [2] 95 % of control

CC(C)(C)SC(=O)C1(C)OC1c1ccc([N+](=O)[O-])cc1 (stereo not given)
inactive: endpoint: mean survival time, dose: 100.0 mg/kg/injection, schedule: Q01DX001 (ip), vehicle: Klucel (hydroxypropylcellulose) (HPC) 97 % of control | endpoint: mean survival time, dose: 200.0 mg/kg/injection, schedule: Q01DX001 (ip), vehicle: Klucel (hydroxypropylcellulose) (HPC) 94 % of control | endpoint: mean survival time, dose: 400.0 mg/kg/injection, schedule: Q01DX001 (ip), vehicle: Klucel (hydroxypropylcellulose) (HPC) 97 % of control

[N-]=[N+]=CC(=O)c1c(Cl)n(-c2ccccc2)c2ccccc12
inactive: [12] 90 % of control | [1] 98 % of control | [2] 101 % of control

Nc1nc(SCC(=O)c2ccccc2)c2[nH]cnc2n1
inactive: endpoint: mean survival time, dose: 100.0 mg/kg/injection, schedule: Q04DX003 (ip), vehicle: saline sonified 113 % of control | endpoint: mean survival time, dose: 176.0 mg/kg/injection, schedule: Q04DX003 (ip), vehicle: saline with Tween-80 113 % of control | endpoint: mean survival time, dose: 200.0 mg/kg/injection, schedule: Q04DX003 (ip), vehicle: saline sonified 107 % of control

c1ccc(P(CCNCCP(c2ccccc2)c2ccccc2)c2ccccc2)cc1
inactive: endpoint: median survival time, dose: 25.0 mg/kg/injection, schedule: Q01DX009 (ip), vehicle: saline with Tween-80 101 % of control | endpoint: median survival time, dose: 50.0 mg/kg/injection, schedule: Q01DX009 (ip), vehicle: saline with Tween-80 103 % of control | endpoint: median survival time, dose: 100.0 mg/kg/injection, schedule: Q01DX009 (ip), vehicle: saline with Tween-80 103 % of control | endpoint: median survival time, dose: 200.0 mg/kg/injection, schedule: Q01DX009 (ip), vehicle: saline with Tween-80 101 % of control

O=S(=O)(Cc1cc(-c2ccccc2)n[nH]1)c1ccccc1
inactive: [17] 96 % of control | [18] 95 % of control | [19] 98 % of control

Cc1nc2[nH]c(=O)n(O)c(=O)c2s1
inactive: endpoint: mean survival time, dose: 75.0 mg/kg/injection, schedule: Q01DX001 (ip), vehicle: other 102 % of control | endpoint: mean survival time, dose: 150.0 mg/kg/injection, schedule: Q01DX001 (ip), vehicle: other 100 % of control | endpoint: mean survival time, dose: 300.0 mg/kg/injection, schedule: Q01DX001 (ip), vehicle: other 86 % of control

Nc1ccc2[nH]c(=S)sc2c1
inactive: [1] 94 % of control | [2] 92 % of control | [3] 90 % of control

CC(C(=O)c1ccccc1)C(N[N+](C)(C)C)c1ccccc1 (stereo not given)
inactive: [11] 96 % of control

COc1cc(C2=N/C(=C\c3ccc(Cl)c(Cl)c3)C(=O)O2)cc(OC)c1OC
inactive: [8] 114 % of control | [9] 95 % of control | [16] 100 % of control
